Columns and labels:
DIGSA = experiment: Pre-emergence herbicidal action against DIGSA; assay type: in vivo, Digitaria sanguinalis
Summary of the method: (§1)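 Pre-emergence soil-surface spray of formulated compound (WP or EC; 600 to 800 l/ha; 0.2% wetting agent) over seeds sown in sandy loam. After 3 weeks under greenhouse conditions, damage is estimated visually in percent against untreated plants.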

POLCO [1] = experiment: Post-emergence herbicidal action against POLCO; assay type: in vivo, Polygonum convolvulus; details: dosage 20 g/ha
Description: Seeds of monocotyledonous and dicotyledonous weed and crop plants are laid out in sandy loam soil in wood-fiber pots, covered with soil and cultivated in a greenhouse under good growth conditions. 2 to 3 weeks after sowing, the test plants are treated at the one-leaf stage. The compounds of the invention, formulated in the form of wettable powders (WP) or as emulsion concentrates (EC), are then sprayed onto the green parts of the plants in the form of an aqueous suspension or emulsion at a water application rate equivalent to 600 to 800 l/ha, with addition of 0.2% wetting agent. After the test plants have been left to stand in the greenhouse under optimal growth conditions for about 3 weeks, the action of the preparations is assessed visually in comparison to untreated controls (herbicidal action in percent (%): 100% activity=the plants have died, 0% activity=like control plants). […] The tables below illustrate, in an illustrative manner, the post-emergence herbicidal action of the compounds of the invention, the herbicidal activity being stated in percent.

ABUTH [2] = experiment: Pre-emergence herbicidal action against ABUTH; assay type: in vivo, Abutilon theophrasti
Summary of the method: as §1

ABUTH [3] = experiment: Post-emergence herbicidal action against ABUTH; assay type: in vivo, Abutilon theophrasti; details: visual assessment about 3 weeks after treatment vs untreated controls
Summary of the method: (§2)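 Spray, one-leaf stage: WP or EC compound in water, 600–800 l/ha, 0.2% wetting agent. Plants held about 3 weeks in the greenhouse, then visually rated in percent of kill compared with untreated controls.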

SETVI [4] = experiment: Pre-emergence herbicidal action against SETVI; assay type: in vivo, Setaria viridis
Summary of the method: as §1

ECHCG [5] = experiment: Pre-emergence herbicidal action against ECHCG; assay type: in vivo, Echinochloa crus-galli; details: 80 g/ha
Summary of the method: as §1

AMARE [6] = experiment: Pre-emergence herbicidal action against AMARE; assay type: in vivo, Amaranthus retroflexus
Summary of the method: as §1

MATIN [7] = experiment: Pre-emergence herbicidal action against MATIN; assay type: in vivo, Matricaria inodora
Summary of the method: as §1

SETVI [8] = experiment: Post-emergence herbicidal action against SETVI; assay type: in vivo, Setaria viridis
Summary of the method: as §2

VERPE [9] = experiment: Post-emergence herbicidal action against VERPE; assay type: in vivo, Veronica persica
Summary of the method: as §2

PHBPU [10] = experiment: Pre-emergence herbicidal action against PHBPU; assay type: in vivo, Pharbitis purpurea; details: dosage 80 g/ha
Summary of the method: as §1

ALOMY [11] = experiment: Pre-emergence herbicidal action against ALOMY; assay type: in vivo, Alopecurus myosuroides
Summary of the method: as §1

VIOTR [12] = experiment: Pre-emergence herbicidal action against VIOTR; assay type: in vivo, Viola tricolor
Summary of the method: as §1

ECHCG [13] = experiment: Post-emergence herbicidal action against ECHCG; assay type: in vivo, Echinochloa crus-galli
Summary of the method: as §2

MATIN [14] = experiment: Post-emergence herbicidal action against MATIN; assay type: in vivo, Matricaria inodora
Summary of the method: as §2

VERPE [15] = experiment: Pre-emergence herbicidal action against VERPE; assay type: in vivo, Veronica persica; details: dosage 80 g/ha
Summary of the method: as §1

PHBPU [16] = experiment: Post-emergence herbicidal action against PHBPU; assay type: in vivo, Pharbitis purpurea; details: dosage 20 g/ha
Summary of the method: as §2

POLCO [17] = experiment: Pre-emergence herbicidal action against POLCO; assay type: in vivo, Polygonum convolvulus; details: dosage 80 g/ha
Summary of the method: as §1

VIOTR [18] = experiment: Post-emergence herbicidal action against VIOTR; assay type: in vivo, Viola tricolor
Summary of the method: as §2

ALOMY [19] = experiment: Post-emergence herbicidal action against ALOMY; assay type: in vivo, Alopecurus myosuroides; details: dosage 20 g/ha, visual assessment about 3 weeks after treatment vs untreated controls
Summary of the method: as §2

AVEFA = experiment: Pre-emergence herbicidal action against AVEFA; assay type: in vivo, Avena fatua; details: 80 g/ha, pre-emergence
Summary of the method: as §1

AMARE [20] = experiment: Post-emergence herbicidal action against AMARE; assay type: in vivo, Amaranthus retroflexus; details: 20 g/ha, visual assessment about 3 weeks after treatment, 100% = plants have died, 0% = like control plants
Summary of the method: as §2

[21] = Setaria viridis, 504 h, dosage 20 g/ha
[22] = Tripleurospermum inodorum, 504 h, dosage 20 g/ha
[23] = 80 g/ha, scored visually after 3 weeks vs untreated controls (100% = plants have died, 0% = like control plants)
[24] = dosage 20 g/ha, scored visually after 3 weeks vs untreated controls, 100% = plants have died, 0% = like control plants
[25] = 20 g/ha, scored visually after 3 weeks vs untreated controls, 100% = plants have died, 0% = like control plants

SMILES: COc1c(C(=O)Nc2nnnn2C)ccc(C(F)F)c1C(=O)NC1CC1 [Example 1-74]
- pest or weed control at 20 g/ha (DIGSA; Digitaria sanguinalis, 504 h, dosage 20 g/ha): 100%
- pest or weed control at 80 g/ha (DIGSA; Digitaria sanguinalis, 504 h, dosage 80 g/ha): 100%
- pest or weed control at 20 g/ha (POLCO [1]; Fallopia convolvulus, 504 h): 80%
- pest or weed control at 80 g/ha (ABUTH [2]; Abutilon theophrasti, 504 h, 80 g/ha, scored visually after 3 weeks vs untreated controls (100% = plants have died, 0% = like control plants)): 100%
- pest or weed control at 20 g/ha (ABUTH [2]; Abutilon theophrasti, 504 h, dosage 20 g/ha, scored visually after 3 weeks vs untreated controls, 100% = plants have died, 0% = like control plants, read-out: Pre-emergence action against ABUTH (herbicidal activity in percent)): 100%
- pest or weed control at 5 g/ha (ABUTH [3]; Abutilon theophrasti, 504 h, dosage 5 g/ha): 80%
- pest or weed control at 20 g/ha (ABUTH [3]; Abutilon theophrasti, 504 h, dosage 20 g/ha): 80%
- pest or weed control at 20 g/ha (SETVI [4]; [21]): 100%
- pest or weed control at 80 g/ha (SETVI [4]; Setaria viridis, 504 h, dosage 80 g/ha): 100%
- pest or weed control at 80 g/ha (ECHCG [5]; Echinochloa crus-galli, 504 h): 100%
- pest or weed control at 20 g/ha (AMARE [6]; Amaranthus retroflexus, 504 h, 20 g/ha, scored visually after 3 weeks vs untreated controls, 100% = plants have died, 0% = like control plants): 100%
- pest or weed control at 80 g/ha (AMARE [6]; Amaranthus retroflexus, 504 h, 80 g/ha, scored visually after 3 weeks vs untreated controls, 100% = plants have died, 0% = like control plants): 100%
- pest or weed control at 20 g/ha (MATIN [7]; [22]): 100%
- pest or weed control at 80 g/ha (MATIN [7]; Tripleurospermum inodorum, 504 h, dosage 80 g/ha): 100%
- pest or weed control at 20 g/ha (SETVI [8]; [21]): 100%
- pest or weed control at 5 g/ha (VERPE [9]; Veronica persica, 504 h, 5 g/ha): 80%
- pest or weed control at 20 g/ha (VERPE [9]; Veronica persica, 504 h, 20 g/ha): 90%
- pest or weed control at 80 g/ha (PHBPU [10]; Ipomoea purpurea, 504 h): 100%
- pest or weed control at 80 g/ha (ALOMY [11]; Alopecurus myosuroides, 504 h, 80 g/ha, pre-emergence, scored visually after 3 weeks vs untreated controls (100% = plants have died, 0% = like control plants)): 90%
- pest or weed control at 20 g/ha (VIOTR [12]; Viola tricolor, 504 h, dosage 20 g/ha): 100%
- pest or weed control at 80 g/ha (VIOTR [12]; Viola tricolor, 504 h, dosage 80 g/ha): 100%
- pest or weed control at 5 g/ha (ECHCG [13]; Echinochloa crus-galli, 504 h, dosage 5 g/ha): 80%
- pest or weed control at 20 g/ha (ECHCG [13]; Echinochloa crus-galli, 504 h, dosage 20 g/ha): 80%
- pest or weed control at 5 g/ha (MATIN [14]; Tripleurospermum inodorum, 504 h, dosage 5 g/ha): 80%
- pest or weed control at 20 g/ha (MATIN [14]; [22]): 90%
- pest or weed control at 80 g/ha (VERPE [15]; Veronica persica, 504 h): 100%
- pest or weed control at 20 g/ha (PHBPU [16]; Ipomoea purpurea, 504 h): 90%
- pest or weed control at 80 g/ha (POLCO [17]; Fallopia convolvulus, 504 h): 80%
- pest or weed control at 5 g/ha (VIOTR [18]; Viola tricolor, 504 h, 5 g/ha): 80%
- pest or weed control at 20 g/ha (VIOTR [18]; Viola tricolor, 504 h, 20 g/ha): 90%

SMILES: CCn1nnnc1NC(=O)c1ccc(Br)c(C(=O)NCC2CC2)c1Cl [Example 2-180]
- Pre-emergence action against DIGSA in % (DIGSA; dosage 20 g/ha): 100%
- Pre-emergence action against DIGSA in % (DIGSA; dosage 80 g/ha): 100%
- Post-emergence action against POLCO in % (POLCO [1]): 100%
- Pre-emergence action against ABUTH (herbicidal activity) (ABUTH [2]; [23]): 100%
- Pre-emergence action against ABUTH (herbicidal activity in percent) (ABUTH [2]; [24]): 100%
- Pre-emergence action against SETVI in % (SETVI [4]; dosage 80 g/ha): 100%
- Pre-emergence action against ECHCG in % (ECHCG [5]): 100%
- Pre-emergence action against AMARE in % (AMARE [6]; [25]): 100%
- Pre-emergence action against AMARE in % (AMARE [6]; [23]): 100%
- Pre-emergence action against MATIN in % (MATIN [7]; dosage 20 g/ha): 100%
- Pre-emergence action against MATIN in % (MATIN [7]; dosage 80 g/ha): 100%
- Post-emergence action against SETVI in % (SETVI [8]; dosage 20 g/ha): 90%
- Pre-emergence action against PHBPU in % (PHBPU [10]): 100%
- Pre-emergence action against ALOMY (ALOMY [11]; 20 g/ha, scored visually after 3 weeks, 100% = plants have died, 0% = like control plants): 80%
- Pre-emergence action against ALOMY (herbicidal activity) (ALOMY [11]; 80 g/ha, pre-emergence, scored visually after 3 weeks vs untreated controls (100% = plants have died, 0% = like control plants)): 100%
- Pre-emergence action against VIOTR in % (VIOTR [12]; dosage 20 g/ha): 100%
- Pre-emergence action against VIOTR in % (VIOTR [12]; dosage 80 g/ha): 100%
- Post-emergence action against ECHCG in % (ECHCG [13]; dosage 20 g/ha): 90%
- Post-emergence action against ALOMY in % (ALOMY [19]): 90%
- Pre-emergence action against AVEFA in % (AVEFA): 80%
- Post-emergence action against MATIN in % (MATIN [14]; dosage 20 g/ha): 80%
- Post-emergence action against PHBPU in % (PHBPU [16]): 90%
- Pre-emergence action against POLCO in % (POLCO [17]): 90%
- Post-emergence action against VIOTR in % (VIOTR [18]; 20 g/ha): 100%

SMILES: CCn1nnnc1NC(=O)c1ccc(C(F)F)c(C(=O)NC)c1C1CC1 [Example 2-304]
- Pre-emergence action against DIGSA in % (DIGSA; dosage 20 g/ha): 90%
- Pre-emergence action against DIGSA in % (DIGSA; dosage 80 g/ha): 100%
- Post-emergence action against POLCO in % (POLCO [1]): 80%
- Pre-emergence action against ABUTH (herbicidal activity) (ABUTH [2]; [23]): 100%
- Pre-emergence action against ABUTH (herbicidal activity in percent) (ABUTH [2]; [24]): 100%
- Post-emergence action against ABUTH in % (ABUTH [3]; dosage 5 g/ha): 90%
- Post-emergence action against ABUTH in % (ABUTH [3]; dosage 20 g/ha): 90%
- Pre-emergence action against SETVI in % (SETVI [4]; dosage 80 g/ha): 90%
- Pre-emergence action against ECHCG in % (ECHCG [5]): 90%
- Pre-emergence action against AMARE in % (AMARE [6]; [25]): 100%
- Pre-emergence action against AMARE in % (AMARE [6]; [23]): 100%
- Pre-emergence action against MATIN in % (MATIN [7]; dosage 20 g/ha): 90%
- Pre-emergence action against MATIN in % (MATIN [7]; dosage 80 g/ha): 100%
- Post-emergence action against SETVI in % (SETVI [8]; dosage 5 g/ha): 80%
- Post-emergence action against SETVI in % (SETVI [8]; dosage 20 g/ha): 80%
- Post-emergence action against VERPE in % (VERPE [9]; 20 g/ha): 90%
- Pre-emergence action against PHBPU in % (PHBPU [10]): 90%
- Pre-emergence action against VIOTR in % (VIOTR [12]; dosage 20 g/ha): 90%
- Pre-emergence action against VIOTR in % (VIOTR [12]; dosage 80 g/ha): 100%
- Post-emergence action against ECHCG in % (ECHCG [13]; dosage 20 g/ha): 80%
- Post-emergence action against MATIN in % (MATIN [14]; dosage 5 g/ha): 90%
- Post-emergence action against MATIN in % (MATIN [14]; dosage 20 g/ha): 90%
- Pre-emergence action against VERPE in % (VERPE [15]): 100%
- Post-emergence action at 20 g/ha against AMARE in % (AMARE [20]): 100%
- Post-emergence action against PHBPU in % (PHBPU [16]): 90%
- Pre-emergence action against POLCO in % (POLCO [17]): 80%
- Post-emergence action against VIOTR in % (VIOTR [18]; 5 g/ha): 80%
- Post-emergence action against VIOTR in % (VIOTR [18]; 20 g/ha): 90%
